A short description of test [1]: cells. In kind it is functional, cell-based.
A short description of test [2]: cells. In kind it is functional, cell-based. The source holds these as a separate data set.
Test [3] deals with T1, Heat shock factor protein 1 (Mus musculus, UniProt P38532).
T1 sequence (P38532 whole entry): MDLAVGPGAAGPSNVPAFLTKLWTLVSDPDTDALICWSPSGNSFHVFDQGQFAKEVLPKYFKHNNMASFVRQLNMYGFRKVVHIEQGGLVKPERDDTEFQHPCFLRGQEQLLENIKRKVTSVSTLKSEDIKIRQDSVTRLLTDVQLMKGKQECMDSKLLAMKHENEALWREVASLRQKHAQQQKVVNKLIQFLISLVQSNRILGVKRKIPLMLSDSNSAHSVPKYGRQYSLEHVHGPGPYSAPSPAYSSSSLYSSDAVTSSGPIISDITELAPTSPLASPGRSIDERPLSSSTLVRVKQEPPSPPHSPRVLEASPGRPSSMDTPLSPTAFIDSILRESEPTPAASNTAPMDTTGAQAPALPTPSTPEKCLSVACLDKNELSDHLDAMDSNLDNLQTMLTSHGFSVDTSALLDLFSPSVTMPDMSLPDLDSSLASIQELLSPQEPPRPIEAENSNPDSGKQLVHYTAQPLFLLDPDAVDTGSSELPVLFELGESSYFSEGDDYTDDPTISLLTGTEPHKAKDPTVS
Nature of the test: inhibition of MG132-induced HSE-luciferase signal, confirmation, cell-based, NIH3T3, luminescence, dose retest (AID 2382).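 Note: NIH3T3 fibroblasts with HSF1-driven luciferase reporter stressed by proteasome inhibitor MG132; luminescence from HSF1-driven luciferase expression after 8 hours of MG132 stress.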 The format is functional.

The target of test [4] is T2, RNA-binding protein pos-1 (Caenorhabditis elegans, UniProt G5EF15).
T2 sequence (G5EF15 whole entry): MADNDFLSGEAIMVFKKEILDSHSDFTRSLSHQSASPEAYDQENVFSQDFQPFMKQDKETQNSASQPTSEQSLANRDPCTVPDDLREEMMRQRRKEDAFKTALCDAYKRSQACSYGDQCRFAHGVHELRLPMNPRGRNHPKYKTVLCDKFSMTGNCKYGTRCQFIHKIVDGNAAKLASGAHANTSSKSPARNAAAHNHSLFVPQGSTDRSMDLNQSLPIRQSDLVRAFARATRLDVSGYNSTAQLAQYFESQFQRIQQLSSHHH
In words: inhibitors of POS-1/mex-3 RNA binding, dose response, biochemical, fluorescence polarization (AID 1964).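 Note: purified POS-1 fused to maltose binding protein made in E. coli; potency of compounds blocking POS-1 binding to fluorescent RNA.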

In test [5] the target is T3, Zinc finger protein mex-5 (Caenorhabditis elegans, UniProt Q9XUB2).
T3 sequence (Q9XUB2 whole entry): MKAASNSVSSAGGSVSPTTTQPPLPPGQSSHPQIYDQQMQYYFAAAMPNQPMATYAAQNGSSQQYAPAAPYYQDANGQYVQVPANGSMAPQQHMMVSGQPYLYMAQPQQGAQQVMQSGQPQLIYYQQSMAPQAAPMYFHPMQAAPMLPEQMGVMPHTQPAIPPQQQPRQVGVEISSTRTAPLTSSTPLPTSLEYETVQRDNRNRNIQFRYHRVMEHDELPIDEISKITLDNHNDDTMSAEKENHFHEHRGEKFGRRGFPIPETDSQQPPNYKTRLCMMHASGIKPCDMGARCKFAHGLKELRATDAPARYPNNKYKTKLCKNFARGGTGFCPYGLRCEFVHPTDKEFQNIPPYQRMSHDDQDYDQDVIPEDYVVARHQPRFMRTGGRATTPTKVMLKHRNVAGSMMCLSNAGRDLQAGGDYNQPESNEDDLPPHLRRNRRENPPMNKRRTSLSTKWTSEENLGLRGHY
In words: MEX-5/TCR-2 RNA interaction inhibitors, dose response, biochemical, C. elegans, fluorescence polarization (AID 1960).

Test [6] concerns the target T4, Caspase-3 (Homo sapiens, UniProt P42574).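 Note: Dose-response selectivity test against caspase-3 for candidate inhibitors of sentrin-specific proteases (SENPs).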
T4 sequence (P42574 whole entry): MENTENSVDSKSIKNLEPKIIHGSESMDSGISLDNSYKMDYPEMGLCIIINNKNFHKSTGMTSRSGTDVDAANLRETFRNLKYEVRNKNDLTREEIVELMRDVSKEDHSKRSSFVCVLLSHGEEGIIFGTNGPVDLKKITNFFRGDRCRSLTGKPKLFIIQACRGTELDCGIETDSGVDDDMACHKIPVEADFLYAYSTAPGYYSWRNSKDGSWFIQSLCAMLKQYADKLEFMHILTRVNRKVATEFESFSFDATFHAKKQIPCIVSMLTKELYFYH
In kind it is functional.

For test [7], the target named is T5, Sentrin-specific protease 6 (Homo sapiens, UniProt Q9GZR1).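 Note: Luminescence-based dose-response confirmatory assay of SENP6 inhibition, following up an ultra-high-throughput screen.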
T5 sequence (Q9GZR1 whole entry): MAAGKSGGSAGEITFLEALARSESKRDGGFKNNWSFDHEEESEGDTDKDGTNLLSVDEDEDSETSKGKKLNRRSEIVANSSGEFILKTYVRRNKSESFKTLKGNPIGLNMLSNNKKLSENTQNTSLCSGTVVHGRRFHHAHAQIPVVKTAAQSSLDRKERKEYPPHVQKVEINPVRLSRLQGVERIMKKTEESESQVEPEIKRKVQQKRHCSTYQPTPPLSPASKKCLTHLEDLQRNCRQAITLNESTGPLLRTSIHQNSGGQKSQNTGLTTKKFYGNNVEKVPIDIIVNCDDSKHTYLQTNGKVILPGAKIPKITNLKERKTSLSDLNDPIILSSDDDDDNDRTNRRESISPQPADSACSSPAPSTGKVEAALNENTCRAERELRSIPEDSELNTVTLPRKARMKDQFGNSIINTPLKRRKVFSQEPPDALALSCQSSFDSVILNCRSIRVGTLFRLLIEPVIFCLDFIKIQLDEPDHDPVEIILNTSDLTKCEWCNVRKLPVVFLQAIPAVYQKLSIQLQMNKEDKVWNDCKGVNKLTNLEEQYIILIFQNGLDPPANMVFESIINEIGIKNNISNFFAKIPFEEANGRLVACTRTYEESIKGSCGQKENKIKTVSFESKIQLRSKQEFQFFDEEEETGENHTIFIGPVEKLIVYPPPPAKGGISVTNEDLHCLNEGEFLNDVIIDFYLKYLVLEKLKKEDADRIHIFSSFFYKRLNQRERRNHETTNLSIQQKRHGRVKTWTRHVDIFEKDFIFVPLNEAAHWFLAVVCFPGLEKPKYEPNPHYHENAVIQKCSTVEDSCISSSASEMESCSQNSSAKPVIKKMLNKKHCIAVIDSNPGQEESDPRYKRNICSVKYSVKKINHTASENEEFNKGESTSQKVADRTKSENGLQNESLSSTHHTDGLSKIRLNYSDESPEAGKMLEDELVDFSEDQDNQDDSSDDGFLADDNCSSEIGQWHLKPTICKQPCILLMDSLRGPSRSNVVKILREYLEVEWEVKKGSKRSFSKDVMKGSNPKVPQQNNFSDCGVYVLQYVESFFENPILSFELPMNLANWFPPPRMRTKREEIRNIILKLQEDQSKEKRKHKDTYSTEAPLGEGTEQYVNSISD
In kind it is functional.

Test [8] deals with T6, Sentrin-specific protease 8 (Homo sapiens, UniProt Q96LD8).
T6 sequence (Q96LD8 whole entry): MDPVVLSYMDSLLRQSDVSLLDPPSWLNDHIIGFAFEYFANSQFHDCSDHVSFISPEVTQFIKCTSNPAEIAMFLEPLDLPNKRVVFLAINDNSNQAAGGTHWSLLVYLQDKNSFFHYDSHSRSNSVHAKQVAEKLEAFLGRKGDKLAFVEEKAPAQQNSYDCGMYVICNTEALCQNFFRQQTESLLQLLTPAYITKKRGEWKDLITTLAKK
In kind it is functional.

Test [9] has as its target T7, Sentrin-specific protease 7 (Homo sapiens, UniProt Q9BQF6).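 Note: Luminescence-based dose-response confirmation of ultra-high-throughput screening hits, measuring inhibition of SENP7.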
T7 sequence (Q9BQF6 whole entry): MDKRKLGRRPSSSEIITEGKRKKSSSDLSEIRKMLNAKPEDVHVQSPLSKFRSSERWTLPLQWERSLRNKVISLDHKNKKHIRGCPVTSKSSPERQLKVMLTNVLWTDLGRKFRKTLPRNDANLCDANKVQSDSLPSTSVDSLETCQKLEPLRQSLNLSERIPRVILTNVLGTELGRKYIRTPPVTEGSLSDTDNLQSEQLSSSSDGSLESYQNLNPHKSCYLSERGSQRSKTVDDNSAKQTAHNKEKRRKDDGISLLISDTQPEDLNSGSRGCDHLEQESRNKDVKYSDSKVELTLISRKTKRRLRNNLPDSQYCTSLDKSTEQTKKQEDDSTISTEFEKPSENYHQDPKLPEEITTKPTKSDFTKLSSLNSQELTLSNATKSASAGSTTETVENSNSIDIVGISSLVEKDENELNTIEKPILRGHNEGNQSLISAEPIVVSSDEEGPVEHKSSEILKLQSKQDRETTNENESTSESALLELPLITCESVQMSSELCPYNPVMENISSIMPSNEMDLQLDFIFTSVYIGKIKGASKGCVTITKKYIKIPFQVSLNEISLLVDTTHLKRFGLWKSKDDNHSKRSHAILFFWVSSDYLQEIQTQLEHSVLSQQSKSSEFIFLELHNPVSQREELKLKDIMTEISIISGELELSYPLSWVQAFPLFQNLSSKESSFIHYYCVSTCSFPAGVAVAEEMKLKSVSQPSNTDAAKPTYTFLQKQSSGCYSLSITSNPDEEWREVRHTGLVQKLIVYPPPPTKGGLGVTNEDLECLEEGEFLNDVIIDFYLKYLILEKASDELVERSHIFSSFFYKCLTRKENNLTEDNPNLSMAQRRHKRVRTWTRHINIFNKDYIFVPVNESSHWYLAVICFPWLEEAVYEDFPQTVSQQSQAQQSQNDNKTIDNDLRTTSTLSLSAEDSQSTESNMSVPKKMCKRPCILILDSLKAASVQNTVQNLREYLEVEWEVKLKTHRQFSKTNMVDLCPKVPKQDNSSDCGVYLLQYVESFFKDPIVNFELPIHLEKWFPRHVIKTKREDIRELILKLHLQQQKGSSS
In kind it is functional.

In test [10] the target is T1, Heat shock factor protein 1. In words: HSF1 potentiators in luciferase reporter cells, confirmation, cell-based, NIH3T3, luminescence, dose retest (AID 435004).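 Note: stress induced by proteasome inhibitor MG132 added 30 min after compound; luciferase reporter driven by HSF1 response element in NIH3T3 cells; actives raise luminescence as potentiators of the MG132 stress response.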 In kind it is functional.

Calls of active or inactive are those of the source. Cut-off read from the data, not from the text of the source, for most assays here: actives have a measured EC50 and inactives only a lower limit.

`COc1ccccc1CC(=N)NO`: the concentration for a half-maximal effect (EC50) in test [1] and in test [2] was > 350 µM (not active) throughout.
Consider `C#Cc1ccc([C@@H]2C=C(C(=O)OCC=C)O[C@H](OCc3ccc(CO)cc3)C2)cc1`, for which, in test [3], the EC50 is > 195 µM (not active).
Regarding `CC(C)c1cc(-c2cc(C(=O)NCc3ccccc3)on2)nc(NC2CCCC2)n1`, the concentration giving a half-maximal response (EC50) in test [1] and in [2] was > 350 µM (not active) each time.
In the case of `COc1ccc(Cc2nnc(SCC(=O)NC3CCCCC3)n2C)cc1`, the EC50 in [1] and in test [2] was > 350 µM (not active) in each case.
On to `CCOC(=O)c1ccc(-n2c(CCC(=O)O)ccc2-c2ccc(F)cc2)cc1`, for which the EC50 in test [4] and in test [5] was > 300 µM (not active) in each case.
In the case of `CNC(=S)Nc1ccc(-c2nc3ccc(C)cc3s2)cc1`, the IC50 in [6] is 7.31 µM (active); in test [7] it was 5.18 µM (active); in test [8] it was 5.47 µM (active); in test [9] it was 3.62 µM (active).
In the same order, the values of `Cc1cccc(-c2noc(-c3c(C)noc3C)n2)c1` are 29.8 µM (active), > 100 µM (inactive), > 100 µM (inactive) and 6.22 µM (active).
In the same order, the values of `Cc1csc(NC(=O)c2ccc(Br)s2)n1` are 14 µM (active), 24.9 µM (active), 27.4 µM (active) and 7.6 µM (active).
Consider `Cc1noc(C)c1CSc1ncnc2sc3c(c12)CCC3`, for which the 50% effective concentration (EC50) in test [3] was > 195 µM (not active).
Regarding `CCOc1ccc(NC(=O)CC2C(=O)Nc3ccccc3N2C(=O)c2ccccc2)cc1` (centres undefined), the concentration giving a half-maximal response (EC50) in test [1] and in test [2] was > 350 µM (not active) each time.
As for `CCCCc1nnc(NC(=O)c2ccc3nc(O)c(O)nc3c2)s1`, the EC50 in test [1] and in test [2] was > 350 µM (not active) each time.
In the case of `C=CCOc1ccc(C(c2c(C)n(C)n(-c3ccccc3)c2=O)c2c(C)n(C)n(-c3ccccc3)c2=O)cc1`, in test [3], the EC50 is > 195 µM (not active).
In the case of `Cc1ccc(C(=O)OCC(=O)c2ccc(Cl)s2)s1`, in test [10], the 50% effective concentration (EC50) was 20.3 µM (active). In addition, the IC50 is 18.9 µM (active) in [6], 24.6 µM (active) in test [7], 29.7 µM (active) in test [8] and 7.61 µM (active) in test [9].
With `Cn1c(C(=O)NN)cc2cc(OCc3ccccc3)ccc21`, the EC50 in [3] is > 195 µM (not active).
With `CCNC(=O)c1cc2c(=O)n3cccc(C)c3nc2n(Cc2ccc(C)cc2)c1=N`, the results for the concentration for a half-maximal effect (EC50) in [4] and in test [5] were > 300 µM (not active) and 45.5 µM (active), respectively.
As for `CNC(=O)Cn1nc(C)c2ccccc2c1=O`, in [3], the EC50 is > 195 µM (not active).
The same measure, in the same setting: the result for `CCc1ccc(OC(C)C(=O)N(Cc2ccco2)C2CCS(=O)(=O)C2)cc1` (centres undefined) reads > 195 µM (not active).
In the case of `Cc1noc(C)c1COC(=O)C1CC(O)CN1S(=O)(=O)c1ccc(Cl)cc1` (centres undefined), the EC50 in [1] and in [2] was > 350 µM (not active) in each case.
`Cc1ccc(Cn2ccs/c2=N\C(=O)COC(=O)c2ccc(O)cc2O)cc1`: the 50% inhibitory concentration (IC50) is 37.1 µM (active) in test [6], 10.6 µM (active) in test [7], > 100 µM (inactive) in [8] and 7.79 µM (active) in test [9].
Take `COc1ccc(/C=N/NC(=O)CN(C)S(=O)(=O)c2ccc(NC(C)=O)cc2)cc1`: the concentration giving a half-maximal response (EC50) in [3] is > 195 µM (not active).

Values taken from ChEMBL document CHEMBL1201862, “PubChem BioAssay data set” (2004).
